Assay results as given in patent US20230218589A1, “COMPOUND FOR PREVENTION OR TREATMENT OF A SKIN CANCER OR SKIN PRECANCER” (UNIQUEST PTY LTD, priority 2020, published 2023).
Like-named read-outs stand apart in the source and are kept apart here.

How the values were obtained:
human T cells = test: Human T cell proliferation assay (PBMCs, anti-CD3, CellTiter-Glo); format: cell-based
Description: Cyclosporine A 1 mg/mL stock (CsA—Sigma) was dissolved in DMSO, Rapamycin 5 mg/mL stock (LC Labs) was dissolved in ethanol.
Under sterile conditions, a 96 well flat bottom plate with white opaque walls (Perkin Elmer) was coated with 10 μg per well of purified human anti-CD3 antibody (clone OKT-3; Biolegend) in a volume of 50 μL per well in sterile PBS. The plate was covered in parafilm and incubated overnight at 4° C. Just prior to addition of Peripheral Blood Mononuclear Cells (PBMCs), the antibody solution was removed and discarded using a multichannel pipette. Wells were washed by adding 200 μL sterile PBS to each well and incubating for 2 min. PBS wash solution was removed and discarded following incubation. The wash step was repeated once, for a total of two PBS washes.
20 mL of blood from a consenting healthy volunteer was collected into lithium heparin vacuette containers (Greiner Bio-One). Under sterile conditions, blood from each container was pooled into a single tube and mixed thoroughly with 20 mL FACS buffer (2% FBS in 1×PBS). 15 mL Ficoll-Paque (GE Healthcare) was added to two 50 mL Falcon tubes, before 20 mL of whole blood/FACS buffer mixture was carefully and slowly dispensed on top of the Ficoll layer. Tubes were centrifuged at 800 g for 20 min at room temperature with the brake off. After centrifugation, the resulting PBMC layer between the plasma and Ficoll layers was carefully removed and transferred to a new 50 mL Falcon tube. Tubes were topped up to 45 mL with FACS buffer, then centrifuged at 500 g for 15 min. Supernatant was carefully removed without disturbing cell pellet, then PBMCs from both tubes were pooled. 30 mL of pre-warmed complete RPMI media [RPMI 1640 (Gibco), 10% heat inactivated FBS (Gibco), 1× Penicillin/Streptomycin/L-Glutamine (Gibco), 100 μM 2-Mercaptoethanol (Sigma)] was added to PBMCs, before centrifugation at 500 g for 15 min at room temperature. Supernatant was removed carefully without disturbing cell pellet. PBMCs were resuspended in 1 mL complete RPMI media.
PBMCs were counted manually using a haemocytometer and cell concentration was adjusted to 1.5×10^6 cells/mL with complete RPMI media. 50 μL of cell suspension was added to appropriate wells of the 96 well flat bottom plate with white opaque walls pre-coated in human anti-CD3. The final number of cells per well was 7.5×10^4.
Cells were incubated in a humidified incubator at 37° C. with 5% CO2 for 1 hour before Compound 1 (or vehicle only) was diluted in complete RPMI medium and added to the appropriate wells at the concentration required. The final volume in all wells was 100 μL. Cells were incubated for 5 days in a humidified incubator at 37° C. with 5% CO2.
CellTiter-Glo Luminescent Cell Viability Assay (Promega) was performed to determine the level of metabolically active cells per well based on ATP quantification. CellTiter-Glo Buffer and lyophilised CellTiter-Glo Substrate were equilibrated to room temperature. CellTiter-Glo Substrate was reconstituted with 10 mL CellTiter-Glo Buffer and gently vortexed for 1 minute to create the CellTiter-Glo Reagent. The 96 well plate containing PBMCs was equilibrated to room temperature for 30 min. Once at room temperature, 100 μL of CellTiter-Glo Reagent was dispensed using a multichannel pipette into each well containing 100 μL cells and media. The plate was mixed for 2 min at room temperature on an orbital shaker to induce cell lysis. The plate was then incubated for 10 min at room temperature in the dark to stabilize the luminescence signal. Luminescence signal was recorded using a CLARIOstar Plus plate reader (BMG Labtech).
PBMCs were stimulated with human anti-CD3 antibody and T cells were allowed to proliferate at 37° C. with 5% CO2 in a humidified incubator for 5 days. Proliferation/viability was assessed via a CellTiter-Glo Luminescent Cell Viability Assay and luminescence was read using a CLARIOstar Plus plate reader. […]

T lymphocytes = details: cited from earlier work
[1] = cSCC tumour pharmacokinetics after intra-tumoural injection (LC/MS/MS); format: in vivo, mouse; details: for concentration at 1 h / concentration at 6 h / concentration at 18 h: K14-HPV38-E6/E7, mouse, in vivo
Description: Tumour processing: The whole tumour was removed from the mouse. The weight of the tumour was recorded and tumour was placed into an appropriate cryovial on dry ice then transferred to a −80° C. freezer. 3 tumours per time point were assessed.
Calibration standards and quality control samples were prepared by adding 2.5 μL of stock solutions of test compound of different concentrations into 25 μL of naive mouse blood or skin homogenates. Control samples were prepared by spiking 2.5 μL of water or acetonitrile into 25 μL of naïve mouse blood or skin homogenates. Tumour samples were homogenised in 1 mL of PBS then transferred into polypropylene Eppendorf tubes. 100 μL of 0.1 M zinc sulfate was added into the tubes, vortexed for 10 sec, and 250 μL of HPLC-grade acetonitrile containing internal standard (pimecrolimus) was added, vortexed for 2 min, and centrifuged for 3 min at 800×g. 20-40 μL of the supernatant was analysed by LCMS/MS. Instrument: Acquity UPLC, Waters. Column: Acquity BEH C18 100×2.1 mm, 1.7 micron; Mobile phase A: methanol; Mobile phase B: 5 mM ammonium acetate with 0.1% formic acid; Mobile phase gradient details: T=0 min (10% A, 90% B); T=0.01 min (10% A, 90% B); gradient to T=1.5 min (95% A, 5% B); T=3.2 min (95% A, 5% B). Flow rate: 0.3 mL/min, run time: 4.5 min; Ionisation mode: Electrospray ionisation (positive).

CC[C@@H]1/C=C(\C)[C@@H](O)[C@H](C)C[C@H](OC)[C@H]2O[C@@](O)(C(=O)C(=O)N3CCCC[C@H]3C(=O)O[C@H](/C(C)=C/[C@@H]3CC[C@@H](O)[C@H](OC)C3)[C@H](C)[C@@H](O)CC1=O)[C@H](C)C[C@@H]2OC [Compound 1, 17-Ethyl-1,14,20-trihydroxy-12-[2′-(4″-hydroxy-3″-methoxycyclohexyl)-1′-methylvinyl]-23,25-dimethoxy-13,19,21,27-tetramethyl-11,28-dioxa-4-azatricyclo-[22.3.1.0^4,9]octacos-18-ene-2,3,10,16-tetraone]
rescue of T cell proliferation in the presence of rapamycin (human T cells; 0.3 μM, 1 μM and 3 μM Compound 1 with 1 ng/mL rapamycin, 5 days): significantly rescued | rescue of T cell proliferation in the presence of cyclosporine A (human T cells; 0.3 μM, 1 μM and 3 μM Compound 1 with 50 ng/mL cyclosporine A, 5 days): unable to rescue | rescue of T cell proliferation in the presence of tacrolimus (human T cells; 1 μM and 3 μM Compound 1 with 0.6 ng/mL tacrolimus, 5 days): dose dependently and significantly rescued | T cell proliferation/viability with Compound 1 alone (human T cells; no tacrolimus, 5 days): did not significantly alter | EC50 (T lymphocytes; cultured with tacrolimus 1.2 nM, C57B1/6 mouse spleen T lymphocytes, read-out: ED50, concentration required to inhibit tritiated thymidine uptake of T cells by 50%): < 50 µM | concentration at 1 h ([1]; 1 h post final dose, SCC tumours, read-out: Average Concentration Compound 1 in tumour): 165000 ng/g | concentration at 6 h ([1]; 6 h post final dose, SCC tumours, read-out: Average Concentration Compound 1 in tumour): 148000 ng/g | concentration at 18 h ([1]; 18 h post final dose, SCC tumours, read-out: Average Concentration Compound 1 in tumour): 168000 ng/g | average tumour concentration of Compound 1 relative to that of tacrolimus ([1]; over 18 h): more than 2000 fold

C=CC[C@@H]1/C=C(\C)C[C@H](C)C[C@H](OC)[C@H]2O[C@@](O)(C(=O)C(=O)N3CCCC[C@H]3C(=O)O[C@H](/C(C)=C/[C@@H]3CC[C@@H](O)[C@H](OC)C3)[C@H](C)[C@@H](O)CC1=O)[C@H](C)C[C@@H]2OC [tacrolimus, reference compound]
T cell proliferation compared to the vehicle control (human T cells; 0.6 ng/mL tacrolimus, anti-CD3, 5 days): inhibited | inhibition of T cell proliferation (T lymphocytes; tacrolimus 1.2 nM): 100% | concentration at 1 h [1]: 33 ng/g | concentration at 6 h [1]: 73 ng/g | concentration at 18 h [1]: 52 ng/g
